Test results: PubChem BioAssay (NCI)
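Values below derive from 48-hour exposures of cells grown in 96-well plates, with endpoints linearly interpolated between the two concentrations bracketing the appropriate inhibition level. TGI: total growth inhibition.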 Where a SMILES comes first, the peptide text is derived from it. [ ]: non-standard residue; d: D form. The star is where a group is joined. X28 = COC1=CC(=O)N(C(=O)[C@@H](O*)C(C)C)[C@H]1Cc1ccccc1; NMeL = CN[C@@H](CC(C)C)C(=O)O; Hexanoyl = CCCCCC(=O)*

Tests used:
Assay in all cases: DTP human tumour cell line panel, 48 h
[1] = system: MALME-3M melanoma
[2] = system: HL-60(TB) leukemia
[3] = system: SF-268 CNS
[4] = system: HCC-2998 colon
[5] = system: CCRF-CEM leukemia
[6] = system: HOP-62 NSCLC
[7] = system: K-562 leukemia
[8] = system: NCI/ADR-RES ovarian
[9] = system: MDA-MB-231 breast
[10] = system: MDA-MB-435
[11] = system: SNB-19 CNS
[12] = system: NCI-H226 lung

SMILES	TGI [1]	TGI [2]	TGI [3]	TGI [4]	TGI [5]	TGI [6]	TGI [7]	TGI [8]	TGI [9]	TGI [10]	TGI [11]	TGI [12]
O=C(/C=C1\N=C(c2ccccc2)N(c2ccc3c(c2)Sc2cc(N4C(=O)/C(=C/C(=O)/C=C/c5ccccc5)N=C4c4ccccc4)ccc2N3)C1=O)/C=C/c1ccccc1	55.8 µM	> 100 µM	> 100 µM	> 100 µM	63 µM	> 100 µM	> 100 µM	> 100 µM	90 µM	44.4 µM	80 µM	
COC(=O)c1nc2c(C)c(O)c(O)c([C@H](C)CCC=C(C)C)c2o1	> 100 µM	45.6 µM	> 100 µM	96.2 µM	29.6 µM	67.7 µM	> 100 µM	> 100 µM	> 100 µM	> 100 µM	> 100 µM	34.2 µM
CCOC(=O)C1(C(=O)OCC)C[C@H]2CON=C2[C@@H]1c1ccc(C(F)(F)F)cc1	> 100 µM	> 100 µM	> 100 µM	87.4 µM	23.7 µM	64.9 µM	> 100 µM	> 100 µM	> 100 µM	> 100 µM	> 100 µM	> 100 µM
COCOc1cc(OC)ccc1C=O	> 100 µM	> 100 µM	> 100 µM	71.5 µM	> 100 µM	> 100 µM	> 100 µM	52.1 µM	> 100 µM	40.6 µM	> 100 µM	> 100 µM
O=[N+]([O-])c1ccccc1S(=O)(=O)N1CCCc2cc(Cl)ccc21	> 100 µM	72.2 µM	> 100 µM	> 100 µM	> 100 µM	> 100 µM	> 75.2 µM	> 89.1 µM	> 100 µM	41.7 µM	> 100 µM	> 100 µM
c1ccc(COc2nc3ccc(C45CC6CC(CC(C6)C4)C5)cc3[nH]2)cc1	86.1 µM	43.7 µM	> 100 µM	56.4 µM	> 100 µM	> 74.8 µM	> 100 µM	> 54.4 µM	> 80.9 µM	> 94 µM	> 100 µM	46.2 µM
CC1(C)OC1CC/C(=C/CBr)CBr (configuration not stated)	36.9 µM	23.9 µM	29 µM	29.8 µM	34.1 µM	31.6 µM	49 µM	49.6 µM	30.1 µM	31.9 µM	28.6 µM	48.4 µM
CCCCCC(=O)N[C@H](C(=O)N[C@H](C(=O)N(C)[C@@H](CC(C)C)C(=O)N1CCC[C@H]1C(=O)N1CCC[C@H]1C(=O)O[C@H](C(=O)N1C(=O)C=C(OC)[C@@H]1Cc1ccccc1)C(C)C)C(C)C)C(C)C (Hexanoyl-VV[NMeL]PP-X28)	> 100 µM	6.2 µM	> 100 µM	> 100 µM	> 100 µM	> 100 µM	> 100 µM	> 100 µM	> 100 µM	> 100 µM	> 42.1 µM	> 100 µM
CC1(C(O)c2ccccc2)CN(C(C)(C)C)C(=O)/C1=C\Sc1ccccc1 (configuration not stated)		> 100 µM	43.5 µM	> 100 µM	> 100 µM	> 100 µM	> 100 µM	> 100 µM	> 100 µM	> 100 µM	> 100 µM	
Cn1c2ccccc2n2c(=O)c(-c3ccc(O)cc3)nnc12	> 100 µM	> 100 µM	> 100 µM	> 100 µM	> 100 µM	> 100 µM		> 100 µM	> 100 µM	> 100 µM	> 100 µM	> 100 µM
CC1(c2cccc(C3CCC4(C=CC3=O)OCCO4)c2)OCCO1 (configuration not stated)	10.9 µM	20 µM	36 µM	33.1 µM	10.5 µM	47.9 µM	25.1 µM	31.5 µM	26 µM	26.1 µM	> 45.9 µM	49.2 µM
COc1cc(/C=C\c2ccc(SC)cc2)cc(OC)c1OC	> 100 µM	0.463 µM	56.1 µM	2.17 µM	> 47.1 µM	> 76.3 µM	> 46.8 µM	> 100 µM	> 100 µM	> 100 µM		
C=C(C)C1CC2=C(C(=O)OC)C=C(O2)C(C(=C)C)[C@@H]2OC(=O)/C(=C\C1O)[C@H]2N(C)C (some centres not stated)	34.5 µM	> 24.2 µM	32.9 µM	29 µM	5.4 µM	34.2 µM	> 100 µM	26 µM	43.8 µM	25 µM	50.9 µM	21.7 µM
CC(=O)C1=CC=C/C1=N\Nc1ccccc1	28.4 µM	5.5 µM	23.8 µM	20.5 µM	11.2 µM	50.9 µM	20.5 µM	> 100 µM	24.2 µM	27.4 µM	47.6 µM	39.8 µM
CC(C)(C)[C@@H]1NC(=O)CN1C(=O)OCc1ccccc1	> 100 µM	> 100 µM	> 100 µM	> 100 µM	> 100 µM	> 100 µM	> 100 µM	> 100 µM	> 100 µM	> 100 µM	> 100 µM	> 100 µM
CC(=O)OCc1ccc(-c2nc(C#N)c(N)o2)o1	> 10 µM	> 10 µM	> 10 µM	> 10 µM	> 10 µM	> 10 µM	> 10 µM	> 10 µM	> 10 µM	> 10 µM	> 10 µM	> 10 µM
CCCCc1ccc(N2C(=O)c3cc(C)cnc3S2(=O)=O)cc1	> 100 µM	> 100 µM	> 100 µM	> 100 µM		> 100 µM	> 100 µM	> 100 µM	> 100 µM	> 100 µM	> 100 µM	> 100 µM
